Test results from US20250326799A1, “AGENTS INDUCING VASCULARISATION” (Coegin Pharma AB, priority 2022, published 2025).

Legend:
Format in all cases: cell-based
[1] = system: Human coronary artery smooth cells (HCASMCs); experiment: Gene expression by PCR in arterial smooth muscle cells
Description: Cells on 6-well plates were washed with cold DPBS (Gibco, USA) and homogenized in Trizol reagent (Invitrogen, CA, USA). Total RNA was extracted using PureLink RNA Mini Kit (Invitrogen, CA, USA), followed by nucleic acid quantification with NanoDrop 2000c (Thermo Fisher Scientific, USA). To determine mRNA expression of target genes, real-time qPCR was performed using by KAPA SYBR FAST One-Step qRT-PCR Master Mix Kit (KAPA Biosystems, USA) on LightCycler480 system (Roche, Mannheim, Germany). All primers were purchased from miScript Primer Assays (Qiagen, Valencia, CA) and GAPDH mRNA expression of each sample was used for normalization. Cells on 6-well plates were washed with cold DPBS and lysed with the mixture of lysis buffer and protease inhibitors on ice, then centrifuged at 15,000 g for 20 min at 4° C. Supernatant was performed to measure the protein concentration using BCA Protein Assay Kit (Thermo Fisher Scientific, USA). Protein sample was loaded onto SDS-PAGE gels and separated with electrophoresis, followed by transferred to PVDF membranes (Millipore, USA). Membranes were blocked with 5% nonfat milk. Primary antibodies (Abcam, UK) and secondary antibodies were performed to incubate with membranes at 4° C. overnight and at room temperature for 1 hour respectively.

[2] = system: Human umbilical cord endothelial cells (HUVECs); experiment: Gene expression by PCR in endothelial cells
[3] = system: human coronary smooth muscle cells (HCASMCs); experiment: Low-oxygen induced apoptosis, active caspase-3/-7, smooth muscle cells
Description: The effect of FOL-026 peptide treatment on smooth muscle cell proliferation (FIG. 25a) and apoptosis (FIG. 25c) induced with low-oxygen condition was evaluated with the uptake of BrdU (n=10 per group) and active caspase-3/-7 (n=6-8 per group) separately. H2O2 measurement (FIG. 25b) of smooth muscle cells pre-incubated with FOL-26 peptides after 50 ug/ml oxidized Low-density Lipoprotein (oxLDL) stimulation for 2 hours (n=6-7 per group). Representative images of scratch wound assay in vitro are shown (FIG. 26a) and the ability of wound healing (FIG. 26b) in human coronary smooth muscle cells (HCASMCs) treated with FOL-026 peptides was measured by image J software (n=10 per group). Scale bar=150 um. Data are presented as means±SEM and acquired from 3 to 4 independent replicate tests. *P<0.05, **P<0.01, ***P<0.001, ****P<0.0001 by one-way ANOVA and Dunnett's post-hoc test.

[4] = system: human umbilical vascular endothelial cells (HUVECs); experiment: Low-oxygen induced apoptosis, active caspase-3/-7, HUVECs
Description: The impact of FOL-026 peptide on human umbilical vascular endothelial cells (HUVECs) proliferation (FIG. 18a) and apoptosis (FIG. 18c) induced with low-oxygen condition was determined by BrdU uptake (n=8-9 per group) and active caspase-3/-7 (n=7-10 per group) separately. The ROS level (FIG. 18b) activated by 50 ug/ml oxidized Low-density Lipoprotein (oxLDL) for 2 hours in cells pre-incubated with FOL-026 peptides was assessed using H2O2 measurement (n=4-8 per group). Representative pictures of endothelial migration into an in vitro scratch injury were shown (FIG. 19a) and the wound closure rate (FIG. 19b) in HUVECs stimulated with increasing concentration of FOL-026 peptide was quantified by image J software (n=8-9 per group). Scale bar=150 um. Data are presented as means±SEM and acquired from 3 to 4 independent replicate tests. *P<0.05, **P<0.01, ****P<0.0001 by one-way ANOVA and Dunnett's post-hoc test.
The efficiency of small interfering RNA transfection for 48 hours in HUVECs was confirmed by qRT-PCR (n=4) (FIG. 22a). […]

Sequence: VDTYDGGISVVYGLR [FOL-026]
- c-MET gene expression ([1]; 10 nM and 1000 nM): reduced
- MMP2 gene expression ([1]; 10, 100, and 1000 nM): induced
- NRP-1 gene expression ([1]; 10, 100, and 1000 nM): reduced
- VEGF-A gene expression ([1]; 10, 100, and 1000 nM): induced
- IL-6 gene expression ([1]; 100 and 1000 nM): induced
- MMP3 gene expression ([1]; 100 and 1000 nM): induced
- TNF-α gene expression ([1]; 100 and 1000 nM): induced
- VEGFR-2 gene expression ([2]; 10 nM): reduced
- TNF-α gene expression ([2]; 10 nM and 100 nM): reduced
- IL-6 gene expression ([2]; 10 nM, 100 nM, 1000 nM tested): no effect
- MMP3 gene expression ([2]; 10 nM, 100 nM, 1000 nM tested): no effect
- VEGF-A gene expression ([2]; 10 nM, 100 nM, 1000 nM tested): no effect
- c-Met gene expression ([2]; 10 nM, 100 nM, 1000 nM tested): reducing
- NRP-1 gene expression ([2]; 100 nM and 1000 nM): inducing
- MMP2 gene expression ([2]; 200 nM and 1000 nM): induced
- VEGFR-2 gene expression ([2]; 1000 nM): induced
- NRP-1 gene expression ([2]; lowest dose (10 nM)): reducing
- smooth muscle cell apoptosis induced with low-oxygen condition (active caspase-3/-7) [3]: inhibits apoptosis
- cell apoptosis at 0.1% oxygen after NRP-1 knock-down (active caspase-3/-7) ([4]; HUVECs transfected with siRNA-NC or siNRP-1): blocks the effect
- low oxygen induced apoptosis (active caspase-3/-7) ([4]; HUVECs, low-oxygen condition): alleviates the effect of low oxygen induced apoptosis
